Results: patent publication US10363261B2, “Enolase inhibitors and methods of treatment therewith” (Board of Regents, The University of Texas System, priority 2015, dated 2019)
Values joined by “and” are separate entries in the source; they are usually repeats but may differ in a detail not shown here. Identical values can stand only once.

Legend:
enolase 2 = biological target: T1, enolase 2 (Homo sapiens, UniProt P09104); assay: Thermal shift assay in intact glioma cells overexpressing ENO2 (D423 ENO2); assay type: cell-based; conditions: 100 μM inhibitor
T1 construct: expressed in transfected cells; host or cells: D423 (D423-MG) human glioma cells, clone pCMV ENO2 1x
T1 sequence (P09104 whole entry): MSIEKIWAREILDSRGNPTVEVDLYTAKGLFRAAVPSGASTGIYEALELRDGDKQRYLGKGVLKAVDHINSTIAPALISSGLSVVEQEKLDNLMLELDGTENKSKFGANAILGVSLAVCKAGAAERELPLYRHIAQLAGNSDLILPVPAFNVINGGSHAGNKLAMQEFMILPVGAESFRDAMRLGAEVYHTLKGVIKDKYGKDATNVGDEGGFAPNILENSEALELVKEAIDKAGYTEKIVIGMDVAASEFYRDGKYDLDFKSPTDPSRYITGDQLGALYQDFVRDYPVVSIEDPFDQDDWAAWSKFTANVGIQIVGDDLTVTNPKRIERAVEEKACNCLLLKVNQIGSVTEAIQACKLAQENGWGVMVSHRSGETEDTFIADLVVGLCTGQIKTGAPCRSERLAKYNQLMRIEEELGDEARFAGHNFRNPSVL
Experimental: Thermal shift assays were conducted as described in Martinez Molina, et al. (2013), on lysates of D423 cell line overexpressing ENO1 and ENO2, on recombinant human ENO1 and ENO2 purified from E. coli as well as intact D423 ENO2 overexpressing glioma cells. […] Lysates were diluted (1:100) in Enolase enzymatic activity buffer as mentioned above. Diluted lysates were treated with SF2312, PhAH or vehicle and heated on a C1000 Thermal cycler (Bio-rad) with a linear temperature gradient (50 to 82.5° C. in 2.5° C. increments) for 3 minutes (FIG. 24). The lysates were then centrifuged at 20,000 g for 10 minutes. Supernatant and pellet were then separated and NuPage LDS Sample buffer (Life Technologies # NP0007) was added. Western Blots were performed as described previously (Muller, et al., 2012). The following antibodies were used: ENO1 (Abcam # ab155102), ENO2 (Dako # M087301-2), Vinculin (EMD Millipore #05-386), pan-ENO (Santa Cruz Biotechnology, sc-7455) and TPI (Proteintech #10713-1-AP). Recombinant human ENO2: The same procedure was carried out on purified recombinant ENO2 from E. coli, utilizing the purified protein generated for the X-ray crystallography studies. […]

D423 overexpressing ENO2 = assay: Sensitivity of D423 cells with re-expression of ENO2; assay type: cell-based, human
Experimental: Total cell number was quantified by Hoechst 33342 (Cat# H3570; Invitrogen). Apoptotic cells were counted by staining with propidium iodide. Apoptotic cells become permeable to propidium iodide while live cells are not stained. On the day of apoptosis survey, old media was removed and each well was filled to 100 μl with fresh media. Hoechst and propidium iodide were mixed in 1:100 PBS and 10 μl of the mixture was added in each well gently without touching the cells for a final dilution of 1:1000 from stock. Plates were then incubated at 37° C. for 2 hours. Image capture and quantification was done by High Content Screening System—Operetta (Perkin Elmer).
Cell proliferation of glioma cell lines was assayed either through crystal violet staining or by live-cell confluence measurements with the IncuCyte (Essen BioScience). […] Dye extraction was performed using 10% acetic acid solution, and absorbance was read at 595 nm. Apoptotic cells were counted by staining with YO-PRO®-1 Iodide (491/509, Life Technologies, Y3603). […] Total cell number was quantified by Hoechst 33342 (Cat# H3570 Invitrogen). […] Image capture and quantification was done by High Content Screening System—Operetta (Perkin Elmer). ATP content was measured with the luciferase/luciferin CellTiter-Glo® assay. […]

[1] = Hematocrit / hemolytic anemia after IV administration
Source text: Erythrocytes are sensitive to disruptions in the glycolytic cycle as glycolysis is the cell's only source of energy in the form of ATP.

ENO2 = ENO2 (Homo sapiens, UniProt P09104); assay: Ligand-induced thermal shift assay on cell lysates (D423 overexpressing ENO2); assay type: binding; set-up: expressed in transfected cells; host or cells: D423 (D423-MG) human glioma cells, clone pCMV ENO2 1x
ENO2, sequence (P09104 whole entry): as above
Experimental: Lysates: The lysates were prepared in 20 mM Tris-HCl, 1 mM EDTA and 1 mM β-mercaptoethanol at pH 7.4 and homogenized using a Polytron homogenizer three times for a period of 10 s followed by sonication, after which the lysates were cleared by centrifugation at 20,000 g for 10 minutes. Lysates were diluted (1:100) in Enolase enzymatic activity buffer as mentioned above. […] The lysates were then centrifuged at 20,000 g for 10 minutes. Supernatant and pellet were then separated and NuPage LDS Sample buffer (Life Technologies # NP0007) was added.
As an additional test of SF2312 binding to the enolase protein, ligand-induced thermal shift assays were performed on cell lysates under the same conditions as we performed the enzymatic assay (Martinez Molina, et al., 2013). The principal of the assay is that heat-denatured proteins precipitate out of solution when their hydrophobic core is exposed. As a result, heat denatured proteins disappear from the lysate after centrifugation, whereas native properly folded proteins remain in solution. The levels of specific proteins in the supernatant, such as non-denatured proteins, are followed by immunoblotting as a function of increasing temperature.

O=C1C(P(=O)(O)O)CC(O)N1O (racemic) [SF2312, 3-dihydroxyphosphoryl-1,5-dihydroxy-2-pyrrolidone]
shift of the thermal melting curve of ENO2 in intact glioma cells (enolase 2): ~15 °C
residual sensitivity to SF2312 relative to that of PhAH after re-expression of ENO2 (D423 overexpressing ENO2): at least 4 times
hematocrit after treatment (drop from 45%) ([1]; 100 mg/kg IV for longer than a week): 29%
dose at which mild hemolytic anemia can be observed ([1]; as low as): 50 mg/kg
shift in the thermal denaturation of ENO2 (ENO2; 1 μM inhibitor): > 7.5 °C and 7.5 °C
melting temperature of ENO2 with inhibitor (ENO2; 1 μM, from ~67.5 ° C. without inhibitor): > 75 °C
